In BigSolDB 2.1:

COc1ccc2c(c1)c(CC(=O)O)c(C)n2C(=O)c1ccc(Cl)cc1
solubility (mole fraction)
Settings	293.15 K	298.15 K	303.15 K	308.15 K	313.15 K
in 1,4-dioxane	0.0249	0.029	0.0343	0.0416	0.0477
in water	7.81e-07	9.32e-07	1.1e-06	1.27e-06	1.52e-06
